Test results reported in PMC2229473 (The Journal of General Physiology, 1999).

Assays:
KcsA K^+ channel [1] = target: T1, KcsA K^+ channel (Streptomyces lividans, UniProt P0A334); test: single-channel recording in planar lipid bilayer, block of open-channel current; assay type: biochemical
T1 sequence (P0A334 1-160): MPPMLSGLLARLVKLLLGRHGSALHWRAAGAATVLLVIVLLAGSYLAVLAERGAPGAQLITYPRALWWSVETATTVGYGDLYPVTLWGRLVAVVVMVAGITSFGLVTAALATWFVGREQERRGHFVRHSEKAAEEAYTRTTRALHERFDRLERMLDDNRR

KcsA K^+ channel [2] = target: T2, KcsA K^+ channel (Streptomyces lividans, UniProt P0A334, Y82C); test: as above; assay type: biochemical
T2 sequence (P0A334 1-160 Y82C): T1 sequence (P0A334 1-160)

Compound: CC[N+](CC)(CC)CC [TEA, tetraethylammonium]
- Ki (KcsA K^+ channel [1]): 3.2 mM
- Ki (KcsA K^+ channel [2]): 23 mM
